# How the values were obtained:
# ADAM10 = target: T1, ADAM10 (Homo sapiens, UniProt O14672); details: cited from earlier work
# T1 sequence (O14672 214-748): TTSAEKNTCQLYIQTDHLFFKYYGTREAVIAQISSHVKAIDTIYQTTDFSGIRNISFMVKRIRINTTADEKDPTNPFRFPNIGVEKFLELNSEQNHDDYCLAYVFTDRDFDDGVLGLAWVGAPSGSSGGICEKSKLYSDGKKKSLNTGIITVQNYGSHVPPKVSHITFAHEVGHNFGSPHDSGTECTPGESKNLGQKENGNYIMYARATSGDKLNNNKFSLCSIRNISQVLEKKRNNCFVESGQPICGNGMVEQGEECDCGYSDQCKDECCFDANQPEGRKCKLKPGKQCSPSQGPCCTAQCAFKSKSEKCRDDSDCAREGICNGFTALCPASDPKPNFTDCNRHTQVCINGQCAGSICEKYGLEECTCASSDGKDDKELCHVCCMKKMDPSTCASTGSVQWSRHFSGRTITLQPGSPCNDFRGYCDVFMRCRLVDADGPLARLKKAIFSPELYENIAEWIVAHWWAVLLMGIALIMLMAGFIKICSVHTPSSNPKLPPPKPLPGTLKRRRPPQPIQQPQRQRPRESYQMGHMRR
# ADAM10 and ADAM17 = details: HER2+ metastatic breast cancer patients expressing p95-HER2; trial reported to have failed; cited from earlier work
# BT474 cells = test: Cell viability test (SRB) and colony formation assay in BT474 cells; format: cell-based, human; details: MEL-18-depleted BT474 cells; 1 μM GW280264 with trastuzumab, 5 days
# Protocol: An in vitro toxicity test analysis kit (Sulforhodamine B based, TOX6) was purchased from Sigma-Aldrich (St. Louis, Mo., USA), and used according to the manufacturer's protocols. […] After five days, the cells were fixed by layering a TCA solution in the medium, and incubated at 4° C. for 1 hour. The fixed cells were washed with water several times, and stained with a 0.4% sulforhodamine B solution for 30 minutes. Subsequently, the stained cells were washed with a 1% acetic acid solution until remaining salts were no longer observed, and the incorporated dye was dissolved in a 10 mM Tris solution while gently stirring. The prepared plate was detected using a microplate reader at 490 nm.
# After 2 weeks, the cells were fixed with a 4% formaldehyde solution for 5 minutes, washed with PBS, and stained with 0.02% crystal violet (C0775, Sigma-Aldrich) for 1 to 2 hours at room temperature and then washed again. The prepared plates were dried thoroughly, and the experiment was carried out.
# ErbB-PI3K-AKT signaling = test: Immunoblotting / ELISA of ErbB signaling and ErbB ligand secretion in BT474 cells; format: cell-based, human; details: MEL-18-knockdown BT474 cells; 1 μM GW280264, 24 hours
# Protocol: Cells were lysed in RIPA buffer, and the lysates were subjected to immunoblotting and immunoprecipitation as described in [M. H. Cho et al, Nat Commun 6, 7821(2015)] (60). For immunoblotting, the cell lysates were separated by 6% to 15% SDS-polyacrylamide gel electrophoresis (PAGE) and transferred to nitrocellulose membranes. After blocking the membranes with 5% skin milk, the membranes were incubated with primary antibodies overnight at 4° C., and then reacted with horseradish peroxidase (HRP)-conjugated secondary antibodies for 1 hour at room temperature. Bands were visualized using an ECL detection system (GE Healthcare, Chalfont St. Giles, UK).
# The levels of the HER ligands HB-EGF and heregulinl (heregulinl, NRG1-beta1, NRG1) were measured in cell culture supernatants using ELISA (BosterBio and R&D Systems) according to the manufacturer's protocols.
# In the case of the R&D Systems kit, an ELISA plate was coated overnight with captured antibodies and blocked with 3% BSA for 1 hour. […]
# In the case of the BosterBio ELISA kit, the antibody-coated plate was directly filled with samples and standards, and incubated for 90 minutes. […] After this step, the plates for both kits were filled with a substrate solution for 20 minutes, the reaction was stopped using a stop solution for 20 minutes, and the absorbance was measured using a microplate reader at a wavelength of 450 nm. […]
compound,measurement,setting,value
"CNC(=O)[C@@H](NC(=O)[C@H](CCCc1ccccc1)[C@H](C)N(O)C=O)C(C)(C)C [GI254023, (2R)—N-[(1S)-2,2-dimethyl-1-[(methylamino)carbonyl]-propyl]-2-[(1S)-1-[formyl(hydroxy)amino]ethyl]-5-phenylpentanamide]",selectivity to ADAM10 with respect to ADAM17,ADAM10,about 100 fold
"COC(=O)N1CC2(CC2)C[C@H](C(=O)NO)[C@H]1C(=O)N1CCN(c2ccccc2)CC1 [INCB7839, (6S,7S)-7-[(hydroxyamino)carbonyl]-6-[(4-phenyl-1-piperazinyl)carbonyl]-5-azaspiro[2.5]octane-5-carboxylic acid methyl ester]",clinical therapeutic effect in combination with Herceptin,ADAM10 and ADAM17,improves a clinical therapeutic effect of Herceptin
"CCC[C@@H]([C@@H](CC(C)C)C(=O)N[C@@H](CCCCNC(=O)OCc1ccccc1)C(=O)Nc1nccs1)N(O)C=O [GW280264, benzyl N-[(5S)-5-[[(2R,3S)-3-(Formylhydroxyamino)-2-(2-methylpropyl)-1-oxohexyl]amino]-6-oxo-6-(2-thiazolylamino)hexyl]-carbamate]",anti-proliferative effect of trastuzumab on co-treatment with GW280264,BT474 cells,resistance to trastuzumab is improved
same,activation of ErbB-PI3K-AKT signaling and secretion of ErbB ligands,ErbB-PI3K-AKT signaling,reversing the activation of ErbB-PI3K-AKT signaling

# — patent US11674182B2, “Biomarker for HER2-positive cancer and anti-HER2 therapy and applications thereof” (INDUSTRY-UNIVERSITY COOPERATION FOUNDATION HANYANG …, priority 2017, dated 2023)
